From patent publication US20240270740A1, “INHIBITORS OF CYCLIC GMP-AMP SYNTHASE AND USES THEREOF” (Ventus Therapeutics U.S., Inc., priority 2022, published 2024) come the findings set out here.

Sequence of hcGAS (Q8N884 whole entry): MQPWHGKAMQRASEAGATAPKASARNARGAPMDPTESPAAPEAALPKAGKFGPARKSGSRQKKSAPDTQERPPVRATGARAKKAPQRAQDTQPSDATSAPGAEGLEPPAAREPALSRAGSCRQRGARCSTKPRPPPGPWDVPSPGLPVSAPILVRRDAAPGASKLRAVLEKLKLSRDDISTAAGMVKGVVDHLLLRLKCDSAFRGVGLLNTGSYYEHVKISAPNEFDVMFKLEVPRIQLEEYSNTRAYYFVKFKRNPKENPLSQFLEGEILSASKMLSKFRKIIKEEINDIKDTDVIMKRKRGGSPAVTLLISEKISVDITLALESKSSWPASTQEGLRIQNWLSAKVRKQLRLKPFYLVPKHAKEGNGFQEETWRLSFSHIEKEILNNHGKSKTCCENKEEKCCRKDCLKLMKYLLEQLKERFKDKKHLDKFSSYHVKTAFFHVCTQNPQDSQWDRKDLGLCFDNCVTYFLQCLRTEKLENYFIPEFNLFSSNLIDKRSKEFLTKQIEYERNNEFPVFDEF

This assay has as its target hcGAS (Homo sapiens, UniProt Q8N884). Description: hcGAS LCMS assay (direct measurement of cGAMP production). The settings on record: 0.5 nM hcGAS, 100 μM ATP, 100 μM GTP, 25 nM dsDNA, 4 h incubation. In kind it is biochemical. As to the method: cGAS catalyzes the cyclization of ATP and GTP to produce cGAMP, which is the activating ligand of STING. Human cGAS (hcGAS) inhibition can thus be quantified by measuring how much cGAMP is formed either indirectly, by monitoring ATP-depletion as in the hcGAS Kinase-Glo assay (as described below), or directly, such as using the hcGAS LCMS assay (as described below).
Compounds were tested for their h-cGAS inhibition activity using direct measurement of cGAMP production by LC/MS. Briefly, compounds were incubated with enzyme and substrates for 4 hours (see Table C), before the reaction was stopped with 3 volumes of 70/30 Acetonitrile/H2O mix containing 0.15 mM cGAMP-^13C10^5N5 as internal standard and mixed for […]. After centrifugation (3700 rpm, 10 min, 10° Celsius), […] of each reaction was collected and mixed to equal volume of Acetonitrile. Samples were then analyzed on Qexective (Column: XBridge BEH Amide Column, 130 Å, 3.5 μm, 3 mm×50 mm, Mobile phase A: 10 mM Ammonium acetate in 95/5% H2O/Acetonitrile (0.5% DMSO), Mobile phase B: Acetonitrile (0.5% DMSO).
The results of the assay, expressed as IC50 values, are reported in Table D with the following designations: A represents an IC50 value<0.005 μM; B represents an IC50 value≥0.005 μM and <0.02 μM, C represents an IC50 value≥0.02 μM and <0.06 μM; D represents an IC50 value≥0.06 and <0.2 μM; E represents an IC50 value≥0.2.
As a reminder, the IC50 is the point on the concentration scale where inhibition reaches its midpoint. A higher IC50 goes with lower potency. Turning to `COCCOc1c(N[C@H]2CCC[C@H]2O)cc(C(=O)Nc2nnc(-c3c(Cl)ccn3C)s2)oc1=O` [Compound 85, N-(5-(3-chloro-1-methyl-1H-pyrrol-2-yl)-1,3,4-thiadiazol-2-yl)-4-(((1S,2R)-2-hydroxycyclopentyl)amino)-3-(2-methoxyethoxy)-2-oxo-2H-pyran-6-carboxamide], the IC50 was 0.005 to 0.02 µM.
`COC[C@@H](Nc1cc(C(=O)Nc2nnc(-n3nccc3C)s2)oc(=O)c1OC)C(C)C` [Compound 77, (S)-3-methoxy-4-((1-methoxy-3-methylbutan-2-yl)amino)-N-(5-(5-methyl-1H-pyrazol-1-yl)-1,3,4-thiadiazol-2-yl)-2-oxo-2H-pyran-6-carboxamide] yielded an IC50 of 0.005 to 0.02 µM.
Molecule `COCCNc1cc(C(=O)Nc2nnc(-n3nccc3N)s2)oc(=O)c1OC` [Compound 205, N-(5-(5-amino-1H-pyrazol-1-yl)-1,3,4-thiadiazol-2-yl)-3-methoxy-4-((2-methoxyethyl)amino)-2-oxo-2H-pyran-6-carboxamide] came in with an IC50 of 0.005 to 0.02 µM.
The molecule `COc1c(N[C@H]2CC[C@@H](OC)C2)cc(C(=O)Nc2nnc(-n3nccc3C)s2)oc1=O` (single isomer, unassigned) [124*] yielded an IC50 of 0.005 to 0.02 µM.
`COCCNc1cc(C(=O)Nc2nnc(-c3c(C#N)csc3C)s2)oc(=O)c1OC` [Compound 140, N-(5-(4-cyano-2-methylthiophen-3-yl)-1,3,4-thiadiazol-2-yl)-3-methoxy-4-((2-methoxyethyl)amino)-2-oxo-2H-pyran-6-carboxamide]: the half-inhibitory concentration (IC50) is 0.06 to 0.2 µM.
To `COc1c(N[C@H]2COC[C@H]2OC)cc(C(=O)Nc2nnc(-n3nccc3C)s2)oc1=O` [Compound 160, 3-Methoxy-4-(((3S,4S)-4-methoxytetrahydrofuran-3-yl)amino)-N-(5-(5-methyl-1H-pyrazol-1-yl)-1,3,4-thiadiazol-2-yl)-2-oxo-2H-pyran-6-carboxamide] belongs 0.005 to 0.02 µM; to `COc1c(NC[C@H]2CCCO2)cc(C(=O)Nc2nnc(-n3nccc3C)s2)oc1=O` [Compound 20, (R)-3-methoxy-N-(5-(5-methyl-1H-pyrazol-1-yl)-1,3,4-thiadiazol-2-yl)-2-oxo-4-(((tetrahydrofuran-2-yl)methyl)amino)-2H-pyran-6-carboxamide], 0.02 to 0.06 µM; to `COc1c(NCCOC2CC2)cc(C(=O)Nc2nnc(-n3nccc3C)s2)oc1=O` [Compound 168, 4-((2-cyclopropoxyethyl)amino)-3-methoxy-N-(5-(5-methyl-1H-pyrazol-1-yl)-1,3,4-thiadiazol-2-yl)-2-oxo-2H-pyran-6-carboxamide], 0.06 to 0.2 µM.
On to `COc1c(NC[C@@H]2CCO2)cc(C(=O)Nc2nnc(-n3nccc3C)s2)oc1=O` [Compound 93, (S)-3-methoxy-N-(5-(5-methyl-1H-pyrazol-1-yl)-1,3,4-thiadiazol-2-yl)-4-((oxetan-2-ylmethyl)amino)-2-oxo-2H-pyran-6-carboxamide], for which the IC50 is 0.02 to 0.06 µM.
Molecule `COc1c(N2C[C@@H](OC)CC2=O)cc(C(=O)Nc2nnc(-n3nccc3C)s2)oc1=O` [Compound 155, (S)-3-methoxy-4-(4-methoxy-2-oxopyrrolidin-1-yl)-N-(5-(5-methyl-1H-pyrazol-1-yl)-1,3,4-thiadiazol-2-yl)-2-oxo-2H-pyran-6-carboxamide] displayed a half-inhibitory concentration (IC50) of 0.005 to 0.02 µM.
`COc1c(NCC2(OC)CC2)cc(C(=O)Nc2nnc(-n3nccc3C)s2)oc1=O` [Compound 190] had a half-maximal inhibitory concentration (IC50) of 0.005 to 0.02 µM.
For `COc1c(N[C@@H](C)[C@H](C)OC)cc(C(=O)Nc2nnc(-n3nccc3C)s2)oc1=O` [Compound 163], the IC50 was in the range of 0.06 to 0.2 µM.
With `COc1c(N[C@H]2CCC[C@H]2O)cc(C(=O)Nc2nnc(-n3nccc3C)s2)oc1=O` [Compound 5, 4-(((1S,2R)-2-hydroxycyclopentyl)amino)-3-methoxy-N-(5-(5-methyl-1H-pyrazol-1-yl)-1,3,4-thiadiazol-2-yl)-2-oxo-2H-pyran-6-carboxamide] the figure was 0.005 to 0.02 µM; with `COc1c(N[C@@H]2c3ccccc3C[C@@H]2OC)cc(C(=O)Nc2nnc(-n3nccc3C)s2)oc1=O` (racemic) [Rac-164, 3-methoxy-4-(((1R,2S)-2-methoxy-2,3-dihydro-1H-inden-1-yl)amino)-N-(5-(5-methyl-1H-pyrazol-1-yl)-1,3,4-thiadiazol-2-yl)-2-oxo-2H-pyran-6-carboxamide], 0.005 to 0.02 µM.
For the molecule `COc1c(NC23CCC(CC2)CC3)cc(C(=O)Nc2nnc(-n3nccc3C)s2)oc1=O` [Compound 18, 4-(bicyclo[2.2.2]octan-1-ylamino)-3-methoxy-N-(5-(5-methyl-1H-pyrazol-1-yl)-1,3,4-thiadiazol-2-yl)-2-oxo-2H-pyran-6-carboxamide], the IC50 was < 0.005 µM.
To `COC[C@H]1CCN1c1cc(C(=O)Nc2nnc(-n3nccc3C)s2)oc(=O)c1OC` [Compound 194, (R)-3-methoxy-4-(2-(methoxymethyl)azetidin-1-yl)-N-(5-(5-methyl-1H-pyrazol-1-yl)-1,3,4-thiadiazol-2-yl)-2-oxo-2H-pyran-6-carboxamide] belongs 0.005 to 0.02 µM; to `COc1c(NC23COC(C2)C3)cc(C(=O)Nc2nnc(-n3nccc3C)s2)oc1=O` [Compound 51, 4-((2-oxabicyclo[2.1.1]hexan-4-yl)amino)-3-methoxy-N-(5-(5-methyl-1H-pyrazol-1-yl)-1,3,4-thiadiazol-2-yl)-2-oxo-2H-pyran-6-carboxamide], 0.005 to 0.02 µM; to `COc1c(N2CCCCC2=O)cc(C(=O)Nc2nnc(-n3nccc3C)s2)oc1=O` [Compound 96], < 0.005 µM.
To `COC[C@@]1(Nc2cc(C(=O)Nc3nnc(-n4nccc4C)s3)oc(=O)c2OC)CCOC1` (single isomer, unassigned) [Compound 100*] belongs 0.005 to 0.02 µM.
Molecule `COc1c(N[C@H]2CCC[C@H]2OC(F)F)cc(C(=O)Nc2nnc(-n3nccc3C)s2)oc1=O` [Compound 212, 4-(((1S,2R)-2-(difluoromethoxy)cyclopentyl)amino)-3-methoxy-N-(5-(5-methyl-1H-pyrazol-1-yl)-1,3,4-thiadiazol-2-yl)-2-oxo-2H-pyran-6-carboxamide] came in with an IC50 of 0.005 to 0.02 µM.
With `COC[C@@H](C)Nc1cc(C(=O)Nc2nnc(-c3c(Cl)ccn3C)s2)oc(=O)c1OC` [Compound 128, (R)-N-(5-(3-chloro-1-methyl-1H-pyrrol-2-yl)-1,3,4-thiadiazol-2-yl)-3-methoxy-4-((1-methoxypropan-2-yl)amino)-2-oxo-2H-pyran-6-carboxamide] the figure was < 0.005 µM; with `COc1c(N[C@H]2CC[C@H]2O)cc(C(=O)Nc2nnc(-c3c(Cl)ccn3C)s2)oc1=O` (single isomer, unassigned) [Compound 53], < 0.005 µM; with `COc1c(N[C@H]2COC[C@@H]2OC)cc(C(=O)Nc2nnc(-n3nccc3C)s2)oc1=O` [Compound 13, 3-methoxy-4-(((3S,4R)-4-methoxytetrahydrofuran-3-yl)amino)-N-(5-(5-methyl-1H-pyrazol-1-yl)-1,3,4-thiadiazol-2-yl)-2-oxo-2H-pyran-6-carboxamide], 0.005 to 0.02 µM.
In turn, `COc1c(N[C@@H]2CC[C@@H]2OCC(F)F)cc(C(=O)Nc2nnc(-n3nccc3C)s2)oc1=O` (single isomer, unassigned) [173*] registered an IC50 of 0.02 to 0.06 µM.
